From US5254584A, “N-acetonylbenzamides and their use as fungicides” (Rohm and Haas Company, priority 1992, dated 1993)
In brackets after ≈: the same amount, converted by molar mass.

Legend:
Venturia inaequalis = experiment: Fungitoxicity assay against Venturia inaequalis (in vitro, microtiter MIC); format: cell-based; conditions: 168 h, minimum inhibitory concentration, 7 days at 25° C.
Protocol: The compounds of Examples 1-20 were tested in vitro for fungicidal activity and phytotoxicity. A. The compounds were tested in vitro for fungicidal activity against Pythium ultimum, Botrytis cinerea and Venturia inaequalis. Fungitoxicity assay against Venturia inaequalis: Test compounds were dissolved in dimethylsulfoxide at 1 milligram per milliliter (mg/ml), and 50 ul added to 950 ul of yeast extract-dextrose medium (YED, 0.4% yeast extract, 2% dextrose) to give 50 part per million (ppm) solutions. Minimum inhibitory concentration (MIC) values were determined using a microtiter assay with twofold serial dilutions of the prepared 50 ppm solutions (100 ul) in YED medium. Inoculum consisted of a spore suspension of V. inaequalis in YED medium at 2.5×10^5 spores per ml. […] Results of the testing for fungicidal activity against the above named fungi are set forth below in Table 3 as Pythium EC50 (ppm), Botrytis EC50 (ppm) and Venturia MIC (ppm), respectively.

Monilinia fructicol = experiment: microbe, parasite or virus in culture; format: cell-based; conditions: 72 h, 3 days at room temperature, read-out: MON percent inhibition of fungal growth
Phytophthora capsici = experiment: microbe, parasite or virus in culture; format: cell-based; conditions: 72 h, 3 days at room temperature, read-out: PHY percent inhibition of fungal growth
Fusarium roseum = experiment: microbe, parasite or virus in culture; format: cell-based; conditions: Fusarium sambucinum, 72 h, read-out: FUS percent inhibition of fungal growth
Phytophthora infestans [1] = format: in vivo; conditions: 300 g/Ha; applied two days after inoculation (curative); tomato
Phytophthora infestans [2] = format: in vivo; conditions: 300 g/Ha; 6 days after inoculation; tomato
Piricularia oryzae = format: in vivo; conditions: 300 g/Ha; seven to eight days after inoculation; Nato rice
Cercospora arachidicola = experiment: Peanut Cercospora (PC); conditions: in vivo
bean plants = experiment: In vivo phytotoxic activity, foliar spray, bean; set-up: key: +: indicating presence of a plant growth regulatory effect as compared to a control to which a solvent mixture (acetone/water/methanol) lacking the test compound was applied; 0: A zero indicates no apparent effect; conditions: foliar spray 2200 g/Ha, seven days after application
Protocol: (§1) The compounds of Examples 1 and 12 were tested in vivo for phytotoxic activity by applying the compounds to the foliage of cucumber, tomato, bean, lettuce and strawberry plants as a spray at a rate of 2200 g/Ha. The plants were evaluated seven days after spray application of the compounds.
(§2) Phototoxicity scores are set forth below in Table 6. The phytotoxicity scores use a symbol, "+", indicating presence of a plant growth regulatory effect as compared to a control to which a solvent mixture (acetone/water/methanol) lacking the test compound was applied. A zero indicates no apparent effect. Each score is a composite representing the mode value for three replicate plants.

strawberry plants = experiment: In vivo phytotoxic activity, foliar spray, strawberry; set-up: key: +: indicating presence of a plant growth regulatory effect as compared to a control to which a solvent mixture (acetone/water/methanol) lacking the test compound was applied; 0: A zero indicates no apparent effect; conditions: foliar spray 2200 g/Ha, seven days after application
Protocol: as §1, §2

## CCC(C)(NC(=O)c1cc(C)cc(C=NOC)c1)C(=O)CCl (stereo not shown) [Example 12, N-[3'-(1'-chloro-3'-methyl-2'-oxopentan)]-3-methoxyiminomethyl-5-methylbenzamide]
Venturia inaequalis
  MIC: 0.1 µg/mL (≈ 0.308 µM)
Monilinia fructicol
  inhibition at 25 ppm: 100%
Phytophthora capsici
  inhibition at 25 ppm: 100%
Fusarium roseum
  inhibition at 25 ppm: 0%
Phytophthora infestans [1]
  TLC percent disease control: 99%
Phytophthora infestans [2]
  TLB percent disease control: 100%
Piricularia oryzae
  RB percent disease control: 75%
Cercospora arachidicola
  PC percent disease control: 80%
Bean plants
  phytotoxicity score, Bean: 0
Strawberry plants
  phytotoxicity score, Strawberry: 0
